Reference: patent US20240180883A1, “TREATMENT OF MIGRAINE” (Allergan Pharmaceuticals International Limited, priority 2020, published 2024)

Biological target: T1, BCRP (Homo sapiens, UniProt Q9UNQ0)
T1 sequence (Q9UNQ0 1-655): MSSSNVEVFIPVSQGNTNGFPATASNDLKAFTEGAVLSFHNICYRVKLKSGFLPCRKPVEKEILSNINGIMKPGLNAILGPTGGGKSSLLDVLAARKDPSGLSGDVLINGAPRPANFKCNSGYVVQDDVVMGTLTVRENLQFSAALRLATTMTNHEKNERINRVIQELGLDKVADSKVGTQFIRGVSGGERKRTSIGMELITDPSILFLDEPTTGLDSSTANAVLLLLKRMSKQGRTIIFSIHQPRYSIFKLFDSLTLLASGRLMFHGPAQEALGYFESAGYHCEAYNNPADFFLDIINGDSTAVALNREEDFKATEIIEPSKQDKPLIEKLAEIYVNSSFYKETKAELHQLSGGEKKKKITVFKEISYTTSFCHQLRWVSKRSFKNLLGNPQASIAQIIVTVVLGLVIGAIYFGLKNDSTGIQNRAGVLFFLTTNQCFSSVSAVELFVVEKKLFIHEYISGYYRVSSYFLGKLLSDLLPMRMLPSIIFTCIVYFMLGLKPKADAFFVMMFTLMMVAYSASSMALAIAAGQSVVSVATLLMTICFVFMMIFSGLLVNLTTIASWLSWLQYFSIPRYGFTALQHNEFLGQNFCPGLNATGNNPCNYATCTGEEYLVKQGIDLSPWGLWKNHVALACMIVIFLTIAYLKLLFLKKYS
Assay: BCRP transporter substrate in vitro
Format: in vitro ADME

C[C@@H]1[C@H](c2ccccc2)C[C@H](NC(=O)c2cnc3c(c2)C[C@@]2(C3)C(=O)Nc3ncccc32)C(=O)N1CC(F)(F)F [ubrogepant, (3′S)-N-((3S,5S,6R)-6-methyl-2-oxo-5-phenyl-1-(2,2,2-trifluoroethyl)piperidin-3-yl)-2′-oxo-1′,2′,5,7-etrahydrospiro[cyclopenta[b]pyridine-6,3′-pyrrolo[2,3-b]pyridine]-3-carboxamide]
substrate of BCRP transporter: substrate
